Patent US20260274804A1, “PHENOLIC COMPOUNDS BLOCKING Nav 1.7 AND/OR Nav 1.8, PROCESSES FOR THE PREPARATION THEREOF, COMPOSITIONS, USES, METHODS OF TREATMENT USING SAME AND KITS” (Eurofarma Laboratórios S.A., priority 2023, published 2026)

Legend:
[1] = molecular target: T1, human sodium channels Nav 1.8 (Homo sapiens, UniProt Q9Y5Y9); experiment: Automated whole-cell voltage-clamp (ScreenPatch 384P) on CHO cells stably expressing Nav 1.8; format: cell-based; conditions: inactivation step -40 mV 8 s, test pulse 10 mV, room temperature, exposure at least five minutes, read-out: Nav1.8 IC50
T1 construct: expressed in transfected cells
T1 sequence (Q9Y5Y9 whole entry): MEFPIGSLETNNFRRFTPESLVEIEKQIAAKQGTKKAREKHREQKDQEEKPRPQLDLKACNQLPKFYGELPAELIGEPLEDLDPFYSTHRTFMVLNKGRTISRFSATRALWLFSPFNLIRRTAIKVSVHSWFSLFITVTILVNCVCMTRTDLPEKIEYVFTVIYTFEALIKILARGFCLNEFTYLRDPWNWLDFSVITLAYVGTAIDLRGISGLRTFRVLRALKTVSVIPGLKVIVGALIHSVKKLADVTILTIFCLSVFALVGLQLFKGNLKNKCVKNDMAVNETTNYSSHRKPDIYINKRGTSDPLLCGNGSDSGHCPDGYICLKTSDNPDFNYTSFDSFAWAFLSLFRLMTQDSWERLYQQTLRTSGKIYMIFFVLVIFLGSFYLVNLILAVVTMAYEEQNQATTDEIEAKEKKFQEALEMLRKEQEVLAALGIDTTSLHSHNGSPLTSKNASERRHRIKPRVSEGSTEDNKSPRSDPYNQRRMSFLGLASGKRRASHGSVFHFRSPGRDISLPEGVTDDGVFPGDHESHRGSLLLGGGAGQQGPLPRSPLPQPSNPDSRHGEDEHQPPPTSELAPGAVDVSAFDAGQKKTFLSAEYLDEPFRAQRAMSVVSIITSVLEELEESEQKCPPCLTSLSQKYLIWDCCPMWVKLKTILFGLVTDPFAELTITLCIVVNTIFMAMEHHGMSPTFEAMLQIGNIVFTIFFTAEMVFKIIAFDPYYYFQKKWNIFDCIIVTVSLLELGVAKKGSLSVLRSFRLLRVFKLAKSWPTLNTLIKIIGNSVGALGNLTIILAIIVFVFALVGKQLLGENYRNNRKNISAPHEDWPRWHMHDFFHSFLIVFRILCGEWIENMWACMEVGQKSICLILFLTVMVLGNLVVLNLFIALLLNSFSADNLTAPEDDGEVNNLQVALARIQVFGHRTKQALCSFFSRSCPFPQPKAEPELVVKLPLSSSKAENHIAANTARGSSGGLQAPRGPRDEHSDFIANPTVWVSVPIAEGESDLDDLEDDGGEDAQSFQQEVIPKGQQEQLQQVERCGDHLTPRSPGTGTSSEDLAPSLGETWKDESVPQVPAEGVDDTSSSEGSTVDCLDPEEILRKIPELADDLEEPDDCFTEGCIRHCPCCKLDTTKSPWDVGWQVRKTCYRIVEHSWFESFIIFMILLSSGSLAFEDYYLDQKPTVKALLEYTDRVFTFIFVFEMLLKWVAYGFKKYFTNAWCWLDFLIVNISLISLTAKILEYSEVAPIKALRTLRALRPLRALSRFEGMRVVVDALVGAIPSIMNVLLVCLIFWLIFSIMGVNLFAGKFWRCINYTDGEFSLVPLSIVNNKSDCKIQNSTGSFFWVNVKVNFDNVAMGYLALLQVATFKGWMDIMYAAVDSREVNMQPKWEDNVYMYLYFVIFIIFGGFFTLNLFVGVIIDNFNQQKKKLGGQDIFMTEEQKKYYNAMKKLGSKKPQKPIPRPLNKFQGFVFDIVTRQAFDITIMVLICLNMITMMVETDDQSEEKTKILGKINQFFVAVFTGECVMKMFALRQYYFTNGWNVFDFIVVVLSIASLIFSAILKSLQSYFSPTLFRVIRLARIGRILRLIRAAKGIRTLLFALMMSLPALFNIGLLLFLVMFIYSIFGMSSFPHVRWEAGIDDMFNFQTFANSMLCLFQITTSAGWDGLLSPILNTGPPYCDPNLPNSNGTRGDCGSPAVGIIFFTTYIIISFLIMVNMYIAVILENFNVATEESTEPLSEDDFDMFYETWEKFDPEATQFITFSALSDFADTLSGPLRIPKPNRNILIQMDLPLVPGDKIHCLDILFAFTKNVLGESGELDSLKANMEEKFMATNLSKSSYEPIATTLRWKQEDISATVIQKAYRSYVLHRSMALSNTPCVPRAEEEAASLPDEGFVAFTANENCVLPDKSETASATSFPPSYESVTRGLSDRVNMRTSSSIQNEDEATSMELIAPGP
Description: (§1) Biological assays were performed on Chinese hamster ovary (CHO) cells that express human sodium channels Nav 1.8 or Nav 1.7 in a stable manner.
(§2) The experimental protocol voltage-clamp using the whole cell configuration was established on the automated ScreenPatch® 384P platform (SP384PE, Nanion Technologies, Livingston, NJ) and the results were recorded with a Nanion 384-well Patch Clamp chip (NPC) (Nanion Technologies, Livingston, NJ).
(§3) Formula I compounds were diluted in eight concentrations in the extracellular solution composed of physiological saline solution, buffered with HEPES (mM): NaCl, 137; KCl, 4; CaCl2, 3.8; MgCl2, 1; HEPES, 10; Glucose, 10; pH 7.4. The […], 50; CsF, 90; MgCl2, 5; EGTA, 5; HEPES, 10; pH 7.2. The duration of exposure of each compound with cells expressing Nav 1.7 or Nav 1.8 was at least five minutes, and the assays were performed at room temperature.
(§4) The measurements of the sodium currents of Nav 1.8 and Nav 1.7 were obtained using the voltage protocol described below.
(§5) A holding voltage of −100 mV was established followed by an inactivation voltage step at −40 mV for 8 seconds, followed by a step of −100 mV for 20 ms, followed by a 20 ms step for 10 mV for Nav 1.8 or 0 mV for Nav 1.7 (TP1A) before returning to the holding voltage of −100 mV.
(§6) The protocol was repeated at a frequency of 0.05 Hz and the amplitude of the current was quantified throughout the recording of the TP1A phase. The variation in the peak current amplitude was evaluated according to the Formula described below, after exposing the cells expressing the channels to each concentration of the different compounds:
(§7) [formula] • wherein […] and ITP1A,molecule represent the peaks of sodium current input into TP1A before exposure to the compound and in the presence of the compound, respectively.
(§8) The decrease in the peak current amplitude, after the exposure of the cells to the compounds, was used to calculate the percentage of relative blockage of the channels in relation to the positive control according to the Formula below:
(§9) [formula] • where % V and % CP represent the means of the values of current inhibition with a vehicle (DMSO) and positive controls, respectively. The sodium currents of the positive control were considered as 100%:
(§10) [formula] • wherein [Test] represents the concentration of the molecule evaluated, IC50 is the concentration of the compound that generates half of the maximum inhibition, N is Hill's coefficient, and % Blockage' is the percentage of sodium channel current (Nav 1.8 and Nav 1.7) inhibited at each concentration of the molecule evaluated. Data were obtained by nonlinear regression (nonlinear least squares) with XLfit for Excel (Microsoft, Redmond, WA).
(§11) The compounds were tested in at least one assay to obtain the value of CI50. For compounds that were tested in two or more assays, the results are described as the means of the CI50 values.

[2] = molecular target: T2, human sodium channels Nav 1.7 (Homo sapiens, UniProt Q15858); experiment: Automated whole-cell voltage-clamp (ScreenPatch 384P) on CHO cells stably expressing Nav 1.7; format: cell-based; conditions: inactivation step -40 mV 8 s, test pulse 0 mV, room temperature, exposure at least five minutes, read-out: Nav1.7 IC50
T2 construct: expressed in transfected cells
T2 sequence (Q15858 whole entry): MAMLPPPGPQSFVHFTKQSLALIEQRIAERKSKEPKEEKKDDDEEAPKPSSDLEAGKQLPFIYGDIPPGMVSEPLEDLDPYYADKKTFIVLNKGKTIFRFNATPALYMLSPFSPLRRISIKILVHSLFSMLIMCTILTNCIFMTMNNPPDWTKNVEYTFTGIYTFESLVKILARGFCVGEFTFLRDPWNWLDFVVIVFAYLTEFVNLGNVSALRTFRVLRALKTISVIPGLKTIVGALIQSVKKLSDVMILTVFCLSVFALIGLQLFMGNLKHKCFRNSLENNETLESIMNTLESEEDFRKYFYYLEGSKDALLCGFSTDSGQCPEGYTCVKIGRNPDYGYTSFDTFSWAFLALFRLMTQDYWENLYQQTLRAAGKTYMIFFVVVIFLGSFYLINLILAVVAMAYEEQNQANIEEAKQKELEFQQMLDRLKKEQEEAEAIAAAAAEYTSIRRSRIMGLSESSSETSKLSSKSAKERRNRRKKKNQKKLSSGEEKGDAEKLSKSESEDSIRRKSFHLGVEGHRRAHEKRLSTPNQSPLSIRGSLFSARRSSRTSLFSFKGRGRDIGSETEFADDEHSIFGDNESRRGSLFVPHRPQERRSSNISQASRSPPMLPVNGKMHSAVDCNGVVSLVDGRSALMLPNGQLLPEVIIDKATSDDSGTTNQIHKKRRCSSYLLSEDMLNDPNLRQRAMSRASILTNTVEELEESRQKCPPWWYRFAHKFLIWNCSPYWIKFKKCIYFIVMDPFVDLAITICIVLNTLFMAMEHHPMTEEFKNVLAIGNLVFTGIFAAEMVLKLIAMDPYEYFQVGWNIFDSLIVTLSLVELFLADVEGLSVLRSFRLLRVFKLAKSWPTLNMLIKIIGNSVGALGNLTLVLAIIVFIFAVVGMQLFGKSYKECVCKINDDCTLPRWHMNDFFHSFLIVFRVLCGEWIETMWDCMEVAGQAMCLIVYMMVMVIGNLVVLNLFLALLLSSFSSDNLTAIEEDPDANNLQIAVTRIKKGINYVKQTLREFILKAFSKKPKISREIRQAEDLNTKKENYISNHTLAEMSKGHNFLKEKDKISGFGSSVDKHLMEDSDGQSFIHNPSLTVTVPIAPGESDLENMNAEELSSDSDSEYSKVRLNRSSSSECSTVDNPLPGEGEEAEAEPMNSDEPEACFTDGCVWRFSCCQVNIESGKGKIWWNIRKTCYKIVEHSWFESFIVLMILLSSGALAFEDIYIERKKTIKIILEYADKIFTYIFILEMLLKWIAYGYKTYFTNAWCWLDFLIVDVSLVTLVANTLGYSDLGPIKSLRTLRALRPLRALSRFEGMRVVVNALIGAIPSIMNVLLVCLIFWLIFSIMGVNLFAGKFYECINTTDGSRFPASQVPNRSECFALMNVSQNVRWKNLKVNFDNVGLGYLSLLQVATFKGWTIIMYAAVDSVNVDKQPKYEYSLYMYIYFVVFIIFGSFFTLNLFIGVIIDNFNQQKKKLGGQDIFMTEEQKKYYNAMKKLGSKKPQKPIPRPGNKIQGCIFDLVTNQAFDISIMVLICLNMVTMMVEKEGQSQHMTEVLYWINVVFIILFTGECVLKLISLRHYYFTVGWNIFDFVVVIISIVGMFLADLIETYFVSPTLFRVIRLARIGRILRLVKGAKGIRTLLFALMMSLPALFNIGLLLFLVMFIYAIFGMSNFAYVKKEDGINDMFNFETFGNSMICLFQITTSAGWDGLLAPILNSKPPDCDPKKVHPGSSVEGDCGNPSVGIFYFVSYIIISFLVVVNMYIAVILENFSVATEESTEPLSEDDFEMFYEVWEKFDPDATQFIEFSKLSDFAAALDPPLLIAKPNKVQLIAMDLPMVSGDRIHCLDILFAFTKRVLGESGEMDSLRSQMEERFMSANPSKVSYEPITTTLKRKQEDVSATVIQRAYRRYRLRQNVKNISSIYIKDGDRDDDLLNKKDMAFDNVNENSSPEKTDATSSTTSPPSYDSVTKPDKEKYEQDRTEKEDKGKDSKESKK
Description: as §1, §2, §3, §4, §5, §6, §7, §8, §9, §10, §11

Compound | IC50 [1] | IC50 [2]
CCOc1ccc(-c2cnc(O)c(C(=O)N/N=C/c3cccc(OC)c3)n2)c(F)c1 [Compound 19, (E)-6-(4-ethoxy-2-fluorophenyl)-3-hydroxy-N′-(3-methoxybenzylidene)pyrazine-2-carbohydrazide] | > 1000 nM | > 1000 nM
Cc1cc(C)cc(/C=N/NC(=O)c2cncc(-c3ccc(O)cc3)n2)c1 [Compound 2, (E)-N′-(3,5-dimethylbenzylidene)-6-(4-hydroxyphenyl)pyrazine-2-carbohydrazide] | > 1000 nM | > 1000 nM
CCOc1ccc(-c2cncc(C(=O)N/N=C/c3cc(C)cc(O)c3)n2)cc1 [Compound 26, (E)-6-(4-ethoxyphenyl)-N′-(3-hydroxy-5-methylbenzylidene)pyrazine-2-carbohydrazide] | < 500 nM | > 1000 nM
CCOc1ccc(-c2cncc(C(=O)N/N=C/c3cc(OC)ccc3F)n2)c(O)c1 [Compound 8, (E)-6-(4-ethoxy-2-hydroxyphenyl)-N′-(2-fluoro-5-methoxybenzylidene)pyrazine-2-carbohydrazide] | 500 to 1000 nM | > 1000 nM
CCOc1ccc(-c2cncc(C(=O)N/N=C/c3cncc(O)c3)n2)cc1 [Compound 29, (E)-6-(4-ethoxyphenyl)-N′-((5-hydroxypyridine-3-yl)methylene)pyrazine-2-carbohydrazide] | > 1000 nM | > 1000 nM
COc1cc(/C=N/NC(=O)c2cncc(-c3ccc(OC)cc3O)n2)cc(OC)c1 [Compound 5, (E)-N′-(3,5-dimethoxybenzylidene)-6-(2-hydroxy-4-methoxyphenyl)pyrazine-2-carbohydrazide] | < 500 nM | > 1000 nM
CCOc1ccc(-c2cncc(C(=O)N/N=C/c3cc(O)ccc3F)n2)cc1 [Compound 27, (E)-6-(4-ethoxyphenyl)-N′-(2-fluoro-5-hydroxybenzylidene)pyrazine-2-carbohydrazide] | 500 to 1000 nM | > 1000 nM
COc1ccc(-c2cncc(C(=O)N/N=C/c3cc(O)cc(O)c3)n2)cc1 [Compound 20, (E)-N′-(3,5-dihydroxybenzylidene)-6-(4-methoxyphenyl)pyrazine-2-carbohydrazide] | > 1000 nM | > 1000 nM
COc1cc(/C=N/NC(=O)c2cncc(-c3ccc(OC)c(O)c3)n2)cc(OC)c1 [Compound 6, (E)-N′-(3,5-dimethoxybenzylidene)-6-(3-hydroxy-4-methoxyphenyl)pyrazine-2-carbohydrazide] | > 1000 nM | > 1000 nM
COc1ccc(-c2nc(C(=O)N/N=C/c3cc(C)cc(C)c3)cnc2O)cc1 [Compound 13, (E)-N′-(3,5-dimethylbenzylidene)-5-hydroxy-6-(4-methoxyphenyl)pyrazine-2-carbohydrazide] | > 1000 nM | > 1000 nM
COc1ccc(-c2cncc(C(=O)N/N=C/c3cccc(O)c3)n2)cc1 [Compound 23, (E)-N′-(3-hydroxybenzylidene)-6-(4-methoxyphenyl)pyrazine-2-carbohydrazide] | > 1000 nM | > 1000 nM
COc1ccc(-c2cncc(C(=O)N/N=C/c3ccc(O)cc3)n2)cc1 [Compound 22, (E)-N′-(4-hydroxybenzylidene)-6-(4-methoxyphenyl)pyrazine-2-carbohydrazide] | > 1000 nM | > 1000 nM
CCOc1ccc(-c2nc(C(=O)N/N=C/c3cc(OC)cnc3F)cnc2O)cc1 [Compound 16, (E)-6-(4-ethoxyphenyl)-N′-((2-fluoro-5-methoxypyridine-3-yl)methylene)-5-hydroxypyrazine-2-carbohydrazide] | > 1000 nM | > 1000 nM
CCOc1ccc(-c2cncc(C(=O)N/N=C/c3cc(OC)ccc3O)n2)cc1 [Compound 28, (E)-6-(4-ethoxyphenyl)-N′-(2-hydroxy-5-methoxybenzylidene)pyrazine-2-carbohydrazide] | < 500 nM | > 1000 nM
COc1ccc(-c2cncc(C(=O)N/N=C/c3cc(O)cc(OC)c3)n2)cc1 [Compound 21, (E)-N′-(3-hydroxy-5-methoxybenzylidene)-6-(4-methoxyphenyl)pyrazine-2-carbohydrazide] | > 1000 nM | > 1000 nM
COc1ccc(-c2cncc(C(=O)N/N=C/c3cc(C)cc(O)c3)n2)cc1 [Compound 25, (E)-N′-(3-hydroxy-5-methylbenzylidene)-6-(4-methoxyphenyl)pyrazine-2-carbohydrazide] | 500 to 1000 nM | > 1000 nM
CCOc1ccc(-c2nc(C(=O)N/N=C/c3cccc(OC)c3)cnc2O)c(F)c1 [Compound 18, (E)-6-(4-ethoxy-2-fluorophenyl)-5-hydroxy-N′-(3-methoxybenzylidene)pyrazine-2-carbohydrazide] | > 1000 nM | > 1000 nM
CCOc1ccc(-c2cncc(C(=O)N/N=C/c3cc(OC)cnc3F)n2)c(O)c1 [Compound 9, (E)-6-(4-ethoxy-2-hydroxyphenyl)-N′-((2-fluoro-5-methoxypyridine-3-yl)methylene)pyrazine-2-carbohydrazide] | < 500 nM | > 1000 nM
COc1ccc(F)c(/C=N/NC(=O)c2cncc(-c3ccc(O)cc3)n2)c1 [Compound 3, (E)-N′-(2-fluoro-5-methoxybenzylidene)-6-(4-hydroxyphenyl)pyrazine-2-carbohydrazide] | > 1000 nM | > 1000 nM
COc1ccc(-c2cnc(O)c(C(=O)N/N=C/c3cc(OC)cc(OC)c3)n2)cc1 [Compound 14, (E)-N′-(3,5-dimethoxybenzylidene)-3-hydroxy-6-(4-methoxyphenyl)pyrazine-2-carbohydrazide] | > 1000 nM | > 1000 nM
COc1cc(/C=N/NC(=O)c2cncc(-c3ccc(O)cc3)n2)cc(OC)c1 [Compound 1, (E)-N′-(3,5-dimethoxybenzylidene)-6-(4-hydroxyphenyl)pyrazine-2-carbohydrazide] | > 1000 nM | > 1000 nM
COc1ccc(-c2cncc(C(=O)N/N=C/c3cc(C)cc(C)c3)n2)c(O)c1 [Compound 7, (E)-N′-(3,5-dimethylbenzylidene)-6-(2-hydroxy-4-methoxyphenyl)pyrazine-2-carbohydrazide] | < 500 nM | > 1000 nM
COc1ccc(-c2cncc(C(=O)N/N=C/c3ccccc3O)n2)cc1 [Compound 24, (E)-N′-(2-hydroxybenzylidene)-6-(4-methoxyphenyl)pyrazine-2-carbohydrazide] | > 1000 nM | > 1000 nM
COc1ccc(-c2nc(C(=O)N/N=C/c3cc(OC)cc(OC)c3)cnc2O)cc1 [Compound 12, (E)-N′-(3,5-dimethoxybenzylidene)-5-hydroxy-6-(4-methoxyphenyl)pyrazine-2-carbohydrazide] | > 1000 nM | > 1000 nM
O=C(N/N=C/c1cncc(O)c1)c1cncc(-c2ccc(O)cc2)n1 [Compound 4, (E)-6-(4-hydroxyphenyl)-N′-((5-hydroxypyridine-3-yl)methylene)pyrazine-2-carbohydrazide] | > 1000 nM | > 1000 nM
COc1ccc(-c2cnc(O)c(C(=O)N/N=C/c3cc(C)cc(C)c3)n2)cc1 [Compound 15, (E)-N′-(3,5-dimethylbenzylidene)-3-hydroxy-6-(4-methoxyphenyl)pyrazine-2-carbohydrazide] | > 1000 nM | > 1000 nM
